Measured values published in US20030236288A1, “Use of substituted 3-phenyl-5-alkoxy-3H-(1,3,4)-oxadizol-2-ones for inhibiting pancreatic lipase” (priority 2002, published 2003).

Test system: not given
Assay: not given
Conditions: not given

SMILES | melting point
COc1nn(-c2ccc(Oc3ccccc3)cc2)c(=O)o1 | 83 °C
COc1nn(-c2ccc(NC(=O)c3ccc(Cl)cc3)c(OCc3ccc(F)cc3)c2)c(=O)o1 [Example 46, 5-Methoxy-3-(4-(4-chlorobenzoylamino)-3-(4-fluorobenzyloxy)phenyl)-3H-(1,3,4)-oxadiazol-2-one] | 167 °C
COc1nn(-c2cccc(NC(=O)Nc3ccccn3)c2)c(=O)o1 [Example 59, 5-Methoxy-3-(3-(pyrid-2-yl)aminocarbonylaminophenyl)-3H-(1,3,4)-oxadiazol-2-one] | 81 °C
COc1nn(-c2ccc(S(=O)(=O)N3CCOCC3)cc2)c(=O)o1 [Example 208, 3-(4-Morpholinosulfonylphenyl)-5-methoxy-3H-(1,3,4)-oxadiazol-2-one] | 164 °C
COc1nn(-c2ccc(S(=O)(=O)NC3CC(C)CC(C)(C)C3)cc2)c(=O)o1 (centres unmarked) [Example 214, 3-(4-(3,3,5-Trimethylcyclohexylaminosulfonyl)phenyl)-5-methoxy-3H-(1,3,4)-oxadiazol-2-one] | 164 °C
CCOc1nn(-c2ccc(OC3CC(C)(C)CC(C)(C)C3)cc2)c(=O)o1 [Example 215, 3-(4-(3,3,5,5-Tetramethylcyclohexyloxy)phenyl)-5-ethoxy-3H-(1,3,4)-oxad iazol-2-one] | 111 °C
COc1nn(-c2ccc(Oc3ccc(Cl)cc3)cc2)c(=O)o1 [Example 229, 3-(4-(4-Chlorophenoxy)phenyl)-5-methoxy-3H-(1,3,4)-oxad iazol-2-one] | 68 °C
COc1nn(-c2cccc(OC3CC(C)(C)CC(C)(C)C3)c2)c(=O)o1 [Example 237, 3-(3-(3,3,5,5-Tetramethylcyclohexyloxy)phenyl)-5-methoxy-3H-(1,3,4)-oxadiazol-2-one] | 68 °C
COc1nn(-c2ccc(-c3ccccc3)cc2)c(=O)o1 [Example 238, 3-(4-Phenylphenyl)-5-methoxy-3H-(1,3,4)-oxadiazol-2-one] | > 260 °C (dec.)
COc1nn(-c2cccc(-c3ccccc3)c2)c(=O)o1 [Example 240, 3-(3-Phenylphenyl)-5-methoxy-3H-(1,3,4)-oxadiazol-2-one] | 80 °C

Next, values leading:

melting point | SMILES
52 °C | COc1nn(-c2ccc(OC(F)(F)F)cc2)c(=O)o1 [Example 209, 3-(4-Trifluoromethoxyphenyl)-5-methoxy-3H-(1,3,4)-oxad iazol-2-one]
63 °C | CCOc1nn(-c2ccc(OC(F)(F)F)cc2)c(=O)o1 [Example 210, 3-(4-Trifluoromethoxyphenyl)-5-ethoxy-3H-(1,3,4)-oxad iazol-2-one]
89 °C | COc1nn(-c2cccc(Oc3ccccc3)c2)c(=O)o1 [Example 232, 3-(3-Phenoxyphenyl)-5-methoxy-3H-(1,3,4)-oxad iazol-2-one]
50 °C | CCOc1nn(-c2cccc(Oc3ccccc3)c2)c(=O)o1 [Example 233, 3-(3-Phenoxyphenyl)-5-ethoxy-3H-(1,3,4)-oxadiazol-2-one]
47 °C | COc1nn(-c2cccc(COc3cccc(C)c3)c2)c(=O)o1 [Example 239, 3-(3-(3-Methylphenoxymethyl)phenyl)-5-methoxy-3H-(1,3,4)-oxadiazol-2-one]

Target: T1, pancreatic lipase (PL) (Sus scrofa, UniProt P00591)
T1 construct: Enriched preparation from porcine pancreas; purchased Sigma L-0382; host or cells: porcine pancreas (tissue preparation)
T1 sequence (P00591 1-450): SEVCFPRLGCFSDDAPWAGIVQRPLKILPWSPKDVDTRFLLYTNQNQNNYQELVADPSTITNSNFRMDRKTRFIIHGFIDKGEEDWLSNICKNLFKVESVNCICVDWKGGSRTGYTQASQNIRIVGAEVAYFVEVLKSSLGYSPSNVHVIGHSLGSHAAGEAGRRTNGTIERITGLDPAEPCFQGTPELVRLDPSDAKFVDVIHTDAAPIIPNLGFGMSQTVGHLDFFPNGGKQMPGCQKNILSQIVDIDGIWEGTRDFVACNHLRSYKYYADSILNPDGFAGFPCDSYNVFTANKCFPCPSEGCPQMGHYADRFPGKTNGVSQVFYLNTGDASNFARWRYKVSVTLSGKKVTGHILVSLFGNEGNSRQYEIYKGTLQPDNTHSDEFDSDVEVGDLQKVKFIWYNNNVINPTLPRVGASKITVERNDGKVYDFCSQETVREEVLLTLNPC
Assay: Pancreatic lipase inhibition assay (release of radiolabeled oleate from glycerol tri[9,10(n)-3H]oleate/tripalmitin substrate)
Assay type: biochemical
Conditions: enriched lipase preparation from porcine pancreas; 30° C., 30 min; up to 8 concentrations
Method: The activity of the compounds was assayed as follows:
1. Preparation of the substrate:
80 μL of tripalmitin (85 mM in chloroform) are mixed with 5 μL of glycerol tri[9,10(n)-^3H]oleate (5 mCi/mL in toluene) in a 12 mL polypropylene vessel. Evaporation in a rotary evaporator (50° C.) and addition of 4 mL of 200 mM Tris/HCl (pH 7.6), 0.8% TX-100 are followed by ultrasound treatment of the mixture (Branson B-12 sonifier, output level 4, 3×2 min with 1 min intervals on ice) until a homogeneous milky suspension is produced.
Lipase buffer: 80 mM Tris/HCl (pH 7.6), 600 mM NaCl, 8 mM CaCl2, 8 mM benzamidine, 2 mM Pefabloc (Roche Biochemicals) (add the inhibitors only on the day of the assay)
Pancreatic lipase: Enriched preparation from porcine pancreas (Sigma order No. L-0382) dissolved in lipase buffer (100 000 units/500 μL)
5 μL of test substance (in 100% DMSO) or DMSO (control) are mixed with 10 μL of substrate and 5 μL of lipase (in this sequence) and incubated at 30° C. (Eppendorf Thermomixer, 350 min^−1) for 30 min. After addition of 325 μL of methanol/chloroform/n-heptane (10/9/7) and 105 μl of 0.1 M K2CO3, 0.1 M H3BO3 (pH 10.5 adjusted with 1 M KOH) and vigorous mixing, the phases are separated by centrifugation (8000 rpm, Eppendorf centrifuge, 4° C.). 140 μL portions of the aqueous supernatant (contains the liberated radiolabeled oleate; 70% recovery) are transferred into 20 mL scintillation vials and mixed with 6 mL of scintillation cocktail (Beckman Ready Safe). After vigorously mixing and incubating at room temperature for 2 h, the radioactivity is measured in a liquid scintillation counter (Beckman, L8008, tritium channel with quench curve, measurement time 20 min).
Substances are routinely tested in each concentration in three independent incubation mixtures each with duplicate determination after phase separation (SD<0.02). Background values (reaction under the same conditions but without lipase) are subtracted from all values (corresponds predominantly to the content of glycerol trioleate or free oleate in the substrate preparation in the aqueous phase, <5% of the radioactivity employed). The inhibition of the pancreatic lipase enzymatic activity by a test substance is determined by comparison with an uninhibited control reaction (presence of lipase=0% inhibition; absence of lipase 100% inhibition in each case after background correction). The IC50 is calculated from an inhibition plot with up to 8 concentrations of the test substance. The software package GRAPHIT (Elsevier-BIOSOFT) is used for curve fitting and IC50 determination.

SMILES | IC50
COc1nn(-c2ccc(NC(=O)c3ccc(C(F)(F)F)cc3)c(OCc3ccccc3)c2)c(=O)o1 [Example 86, 5-Methoxy-3-(3-benzyloxy-4-(4-trifluoromethylbenzoylamino)phenyl)-3H-(1,3,4)-oxadiazol-2-one] | 1500 nM
CCCCOc1nn(-c2ccc(OC(F)(F)F)cc2)c(=O)o1 [Example 212, 3-(4-Trifluoromethoxyphenyl)-5-butoxy-3H-(1,3,4)-oxadiazol-2-one] | 500 nM
COc1nn(-c2ccc(Oc3ccc(Cl)cc3)cc2)c(=O)o1 [Example 229, 3-(4-(4-Chlorophenoxy)phenyl)-5-methoxy-3H-(1,3,4)-oxad iazol-2-one] | 600 nM

Further lines, results first:

IC50 | SMILES
700 nM | CCOc1nn(-c2ccc(OC(F)(F)F)cc2)c(=O)o1 [Example 210, 3-(4-Trifluoromethoxyphenyl)-5-ethoxy-3H-(1,3,4)-oxad iazol-2-one]
500 nM | O=c1oc(OCc2ccccc2)nn1-c1ccc(OC(F)(F)F)cc1 [Example 213, 3-(4-Trifluoromethoxyphenyl)-5-benzyloxy-3H-(1,3,4)-oxad iazol-2-one]
800 nM | COc1nn(-c2cccc(OCc3ccccc3)c2)c(=O)o1 [Example 216, 3-(3-Benzyloxyphenyl)-5-methoxy-3H-(1,3,4)-oxadiazol-2-one]
700 nM | CCOc1nn(-c2cccc(OC(F)(F)F)c2)c(=O)o1 [Example 218, 3-(3-Trifluoromethoxyphenyl)-5-ethoxy-3H-(1,3,4)-oxad iazol-2-one]
1800 nM | CC(C)Oc1nn(-c2cccc(OC(F)(F)F)c2)c(=O)o1 [Example 220, 3-(3-Trifluoromethoxyphenyl)-5-isopropoxy-3H-(1,3,4)-oxadiazol-2-one]
